SMILES strings stand for the structures. Bounds are passed on as bounds.

This is an account of results in patent publication US8076352B2, “Administration of carboline derivatives useful in the treatment of cancer and other diseases” (PTC Therapeutics, Inc., priority 2004, dated 2011).

This test relates to hypoxia-inducible endogenous VEGF expression in HeLa cells. Nature of the test: Hypoxia-inducible endogenous VEGF expression, VEGF ELISA of conditioned media (dose-response EC50). Conditions: Homo sapiens, HeLa cells under hypoxic conditions. Format: cell-based. The procedure, abridged: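 Secreted VEGF was quantified by ELISA against a per-assay standard curve after HeLa cells spent 24-48 h in 1% O2, 5% CO2, N2 balance with or without compound. Across a series of, e.g., seven concentrations, percentage inhibition (max 100%, min 0%) gave EC50 and CC50 values.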
In general terms: An ELISA detects its analyte on a solid surface through an enzyme-linked reagent.

A word on the EC50: it is the concentration that produces a half-maximal response. Lower therefore signals a more potent agent. As to `Clc1ccc2[nH]c3c(c2c1)CCN(Cc1ccco1)C3c1nccs1` (stereo not drawn) [Compound 267], the EC50 is > 1000 nM. As to `Clc1ccc2[nH]c3c(c2c1)CCN(Cc1ccoc1)C3c1ccco1` (stereo not drawn) [Compound 268], the EC50 was > 1000 nM. Consider `Clc1ccc2[nH]c3c(c2c1)CCN(Cc1ccoc1)C3c1nccs1` (stereo not drawn) [Compound 270], for which the EC50 is > 1000 nM. Take `Clc1ccc2[nH]c3c(c2c1)CCN(Cc1ccoc1)C3C1CCCCC1` (stereo not drawn) [Compound 271]: the EC50 is > 1000 nM. With `Clc1ccc2[nH]c3c(c2c1)CCN(Cc1ccccc1)C3c1ccncc1` (stereo not drawn) [Compound 272] the figure was > 1000 nM; with `Clc1ccc2[nH]c3c(c2c1)CCN(Cc1ccccc1)C3c1c[nH]c2ccc(Br)cc12` (stereo not drawn) [Compound 273], > 1000 nM. Take `Clc1ccc2[nH]c3c(c2c1)CCN(Cc1ccccc1)C3c1cc2c(cc1Cl)OCO2` (stereo not drawn) [Compound 274]: the EC50 was > 1000 nM. Turning to `Clc1ccc2[nH]c3c(c2c1)CCN(Cc1ccccc1)C3c1ccccn1` (stereo not drawn) [Compound 275], the half-maximal effective concentration (EC50) is > 1000 nM. Take `Clc1ccc2[nH]c3c(c2c1)CCN(Cc1ccccc1)C3c1cccnc1` (stereo not drawn) [Compound 276]: the EC50 is > 1000 nM. With `Clc1ccc2[nH]c3c(c2c1)CCNC3c1ccc(-n2ccnc2)cc1` (stereo not drawn) [Compound 277] the figure was > 1000 nM. Regarding `CCOC(=O)N1CCc2c([nH]c3ccc(OCc4ccccc4)cc23)C1c1ccc(OC)cc1` (stereo not drawn) [Compound 278], the EC50 is > 1000 nM.

In the case of `CCOC(=O)N1CCc2c([nH]c3ccc(Cl)cc23)C1c1ccc(OCCN2CCOCC2)cc1` (stereo not drawn) [Compound 279, 6-Chloro-1-[4-(2-morpholin-4-yl-ethoxy)-phenyl]-1,3,4,9-tetrahydro-b-carboline-2-carboxylic acid ethyl ester], the concentration for a half-maximal effect (EC50) was < 8 nM.

For `COc1ccc(C2c3[nH]c4ccc(F)cc4c3CCN2C(=O)NC2CCCCC2)cc1` (stereo not drawn) [Compound 283], the EC50 was > 1000 nM. Turning to `CCOC(=O)N1CCc2c([nH]c3ccc(F)cc23)C1c1cccc(Cl)c1` (stereo not drawn) [Compound 284], the EC50 is > 1000 nM. With `COc1ccc2[nH]c3c(c2c1)CCNC3c1ccc(OCc2ccccc2)cc1` (stereo not drawn) [Compound 285] the figure was > 1000 nM; with `Cc1cccc(C2NCCc3c2[nH]c2ccc(Cl)cc32)c1` (stereo not drawn) [Compound 286], > 1000 nM; with `Clc1ccc2[nH]c3c(c2c1)CCNC3C1CCCCC1` (stereo not drawn) [Compound 287], > 1000 nM. Take `c1ccc(COc2ccc(C3NCCc4c3[nH]c3ccc(OCc5ccccc5)cc43)cc2)cc1` (stereo not drawn) [Compound 288]: the EC50 is > 1000 nM. In the case of `COc1ccc(C2c3[nH]c4ccccc4c3CCN2C(=S)NC(C)C)cc1` (stereo not drawn) [Compound 289], the EC50 was > 1000 nM. With `COCCNC(=S)N1CCc2c([nH]c3ccccc23)C1c1ccc(OC)cc1` (stereo not drawn) [Compound 290] the figure was > 1000 nM. As to `Oc1cccc(C2NCCc3c2[nH]c2ccc(Cl)cc32)c1` (stereo not drawn) [Compound 291], the EC50 is > 1000 nM.

For `COc1ccc(C2NCCc3c2[nH]c2ccc(OCc4ccccc4)cc32)cc1` (stereo not drawn) [Compound 292], the EC50 was > 1000 nM. As for `COC(=O)N1CCc2c([nH]c3ccc(OCc4ccccc4)cc23)C1c1ccccc1` (stereo not drawn) [Compound 293], the EC50 was > 1000 nM. For `CC(=O)Nc1ccc(C2NCCc3c2[nH]c2ccc(Cl)cc32)cc1` (stereo not drawn) [Compound 294], the EC50 is > 1000 nM. For the molecule `COc1ccc(C2c3[nH]c4ccccc4c3CCN2C(=O)NC2CCCCC2)cc1` (stereo not drawn) [Compound 295], the EC50 is > 1000 nM. Regarding `Oc1ccc(C2NCCc3c2[nH]c2ccc(Cl)cc32)cc1` (stereo not drawn) [Compound 296], the EC50 is > 1000 nM. Then `CN(C)c1ccc(C2NCCc3c2[nH]c2ccc(Cl)cc32)cc1` (stereo not drawn) [Compound 297], with > 1000 nM; and `CCC1NCCc2c1[nH]c1ccc(Cl)cc21` (stereo not drawn) [Compound 298], with > 1000 nM. As for `FC(F)(F)c1cccc(C2NCCc3c2[nH]c2ccc(Cl)cc32)c1` (stereo not drawn) [Compound 299], the EC50 was > 1000 nM.

For the molecule `COc1ccc(C2NC(C(=O)O)Cc3c2[nH]c2ccc(Br)cc32)cc1` (stereo not drawn) [Compound 300], the 50% effective concentration (EC50) was > 1000 nM. Regarding `COc1ccccc1C1NCCc2c1[nH]c1ccc(Cl)cc21` (stereo not drawn) [Compound 301], the half-maximal effective concentration (EC50) is > 1000 nM. With `COc1ccc(C2c3[nH]c4ccccc4c3CCN2C(=O)Nc2ccccc2)cc1` (stereo not drawn) [Compound 302], the concentration for a half-maximal effect (EC50) is > 1000 nM. Turning to `c1ccc(COc2ccc3[nH]c4c(c3c2)CCNC4c2ccccc2)cc1` (stereo not drawn) [Compound 303], the concentration for a half-maximal effect (EC50) is > 1000 nM. On to `COc1ccc(C2c3[nH]c4ccccc4c3CCN2C(=O)Nc2ccc(C(C)C)cc2)cc1` (stereo not drawn) [Compound 304], for which the EC50 was > 1000 nM. For the molecule `Cc1cccc2c3c([nH]c12)C(c1cccc(Br)c1)NCC3` (stereo not drawn) [Compound 305], the concentration giving a half-maximal response (EC50) was > 1000 nM.

In the case of `COc1ccc(C2c3[nH]c4ccccc4c3CCN2C(=O)NC(C)C)cc1` (stereo not drawn) [Compound 306], the EC50 is > 1000 nM.

Take `CCNC(=O)N1CCc2c([nH]c3ccccc23)C1c1ccc(OC)cc1` (stereo not drawn) [Compound 307]: the EC50 was > 1000 nM.

With `COc1ccc(C2c3[nH]c4ccccc4c3CCN2C(=S)Nc2cccc(F)c2)cc1` (stereo not drawn) [Compound 308], the EC50 was > 1000 nM. For `CS(=O)(=O)c1ccc(C2c3[nH]c4ccc(Cl)cc4c3CCN2C(=O)N2CCOCC2)cc1` (stereo not drawn) [Compound 309], the EC50 was in the range of 8 to 40 nM. For the molecule `Clc1ccc2[nH]c3c(c2c1)CCNC3c1cccs1` (stereo not drawn) [Compound 310], the half-maximal effective concentration (EC50) was > 1000 nM.

`c1ccc(COc2ccc3[nH]c4c(c3c2)CCNC4c2ccoc2)cc1` (stereo not drawn) [Compound 311]: the concentration giving a half-maximal response (EC50) was > 1000 nM. Then `COc1ccc(C2c3[nH]c4ccccc4c3CCN2C(=S)NC2CCCCC2)cc1` (stereo not drawn) [Compound 312], with > 1000 nM; and `COc1ccc(C2NCCc3c2[nH]c2ccccc32)cc1` (stereo not drawn) [Compound 313], with > 1000 nM. Take `O=C(O)C1Cc2c([nH]c3ccccc23)C(c2ccccc2)N1` (stereo not drawn) [Compound 314]: the half-maximal effective concentration (EC50) was > 1000 nM. As to `COc1ccc(C2NCCc3c2[nH]c2ccc(F)cc32)cc1` (stereo not drawn) [Compound 315], the concentration for a half-maximal effect (EC50) was > 1000 nM. Turning to `COC(=O)c1cccc(NC(=S)N2CCc3c([nH]c4ccccc34)C2c2ccc(OC)cc2)c1` (stereo not drawn) [Compound 316], the EC50 was > 1000 nM.

With `COc1ccc(C2c3[nH]c4ccccc4c3CCN2C(=S)Nc2ccc(C)cc2)cc1` (stereo not drawn) [Compound 317], the half-maximal effective concentration (EC50) was > 1000 nM. As for `COc1cccc(C2NC(CO)Cc3c2[nH]c2ccccc32)c1` (stereo not drawn) [Compound 318], the concentration giving a half-maximal response (EC50) was > 1000 nM.

As for `Clc1ccc2[nH]c3c(c2c1)CCNC3c1cccnc1` (stereo not drawn) [Compound 319], the concentration for a half-maximal effect (EC50) was > 1000 nM.

Turning to `c1ccc(COc2ccc3[nH]c4c(c3c2)CCNC4c2cccnc2)cc1` (stereo not drawn) [Compound 320], the concentration giving a half-maximal response (EC50) was > 1000 nM. Take `COc1ccc2c3c([nH]c2c1)C(c1ccccc1)NCC3` (stereo not drawn) [Compound 321]: the EC50 was > 1000 nM.

For `COc1ccc2[nH]c3c(c2c1)CCNC3c1ccccc1` (stereo not drawn) [Compound 322], the concentration for a half-maximal effect (EC50) was > 1000 nM. Then `COc1ccc(C2NCCc3c2[nH]c2ccc(OC)cc32)cc1` (stereo not drawn) [Compound 323], with > 1000 nM; and `COc1ccc2[nH]c3c(c2c1)CCNC3c1cccnc1` (stereo not drawn) [Compound 324], with > 1000 nM; and `Cc1cccc2c3c([nH]c12)C(c1ccccc1)NCC3` (stereo not drawn) [Compound 326], with > 1000 nM. `COc1ccc(C2NCCc3c2[nH]c2ccc(Cl)cc32)cc1OC` (stereo not drawn) [Compound 327]: the EC50 is > 1000 nM.

`Clc1ccc2[nH]c3c(c2c1)CCN(c1ncccn1)C3c1ccc2c(c1)OCO2` (stereo not drawn) [Compound 328]: the 50% effective concentration (EC50) was > 1000 nM.
